Measurements: publication PMC11680592 (Scientific Reports, 2024)

Key:
yeast α-glucosidase = yeast α-glucosidase (Saccharomyces cerevisiae, UniProt P53341); assay: In vitro α-glucosidase inhibition assay; type: biochemical; conditions: for Fold decrease of anti-α-glucosidase activity relative to compound 10e: compared with 4-ethylphenyl derivative 10e; for Fold decrease of inhibitory activity relative to compound 10g: compared with 2,6-dimethyl derivative 10g; for Fold increase of inhibitory activity relative to compound 10m: compared with 4-nitro derivative 10m
yeast α-glucosidase, sequence (P53341 whole entry): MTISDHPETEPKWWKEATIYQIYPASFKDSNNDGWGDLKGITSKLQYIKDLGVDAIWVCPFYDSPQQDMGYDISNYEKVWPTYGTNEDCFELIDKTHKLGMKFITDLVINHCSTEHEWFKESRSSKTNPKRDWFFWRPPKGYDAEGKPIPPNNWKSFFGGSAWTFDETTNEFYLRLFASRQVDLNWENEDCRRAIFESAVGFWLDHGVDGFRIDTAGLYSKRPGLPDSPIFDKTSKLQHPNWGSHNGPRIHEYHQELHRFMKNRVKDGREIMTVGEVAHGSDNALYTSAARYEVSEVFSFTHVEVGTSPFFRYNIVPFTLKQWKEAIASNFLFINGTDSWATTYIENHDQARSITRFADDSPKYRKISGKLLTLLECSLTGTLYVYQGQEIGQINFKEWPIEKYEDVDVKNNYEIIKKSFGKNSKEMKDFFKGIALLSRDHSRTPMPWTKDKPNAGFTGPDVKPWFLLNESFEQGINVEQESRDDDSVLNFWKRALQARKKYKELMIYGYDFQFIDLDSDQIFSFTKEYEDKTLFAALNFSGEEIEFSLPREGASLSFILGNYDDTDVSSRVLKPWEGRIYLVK

α-glucosidase = α-glucosidase (Saccharomyces cerevisiae, UniProt P53341); assay: Kinetic study of α-glucosidase inhibition; type: biochemical, yeast
α-glucosidase, sequence (P53341 whole entry): as above

SMILES: NC(=S)N/N=C/c1cc2ccccc2nc1SCc1cn(CC(=O)Nc2ccccc2)nn1 [Compound 10a, (E)-2-(4-(((3-((2-Carbamothioylhydrazineylidene)methyl)quinolin-2-yl)thio)methyl)-1H-1,2,3-triazol-1-yl)-N-phenylacetamide]
- Fold decrease of anti-α-glucosidase activity relative to compound 10e (yeast α-glucosidase): 5.38 folds

SMILES: Cc1ccccc1NC(=O)Cn1cc(CSc2nc3ccccc3cc2/C=N/NC(N)=S)nn1 [Compound 10b, (E)-2-(4-(((3-((2-Carbamothioylhydrazineylidene)methyl)quinolin-2-yl)thio)methyl)-1H-1,2,3-triazol-1-yl)-N-(o-tolyl)acetamide]
- Fold decrease of inhibitory activity relative to compound 10g (yeast α-glucosidase): 2.3 folds

SMILES: Cc1ccc(NC(=O)Cn2cc(CSc3nc4ccccc4cc3/C=N/NC(N)=S)nn2)cc1 [Compound 10d, (E)-2-(4-(((3-((2-Carbamothioylhydrazineylidene)methyl)quinolin-2-yl)thio)methyl)-1H-1,2,3-triazol-1-yl)-N-(p-tolyl)acetamide]
- Fold decrease of anti-α-glucosidase activity relative to compound 10e (yeast α-glucosidase): 6.97 folds

SMILES: Cc1cccc(NC(=O)Cn2cc(CSc3nc4ccccc4cc3/C=N/NC(N)=S)nn2)c1C [Compound 10f, (E)-2-(4-(((3-((2-Carbamothioylhydrazineylidene)methyl)quinolin-2-yl)thio)methyl)-1H-1,2,3-triazol-1-yl)-N-(2,3-dimethylphenyl)acetamide]
- Fold decrease of inhibitory activity relative to compound 10g (yeast α-glucosidase): 1.6 folds

SMILES: NC(=S)N/N=C/c1cc2ccccc2nc1SCc1cn(CC(=O)Nc2cccc([N+](=O)[O-])c2)nn1 [Compound 10k, (E)-2-(4-(((3-((2-Carbamothioylhydrazineylidene)methyl)quinolin-2-yl)thio)methyl)-1H-1,2,3-triazol-1-yl)-N-(3-nitrophenyl)acetamide]
- Fold increase of inhibitory activity relative to compound 10m (yeast α-glucosidase): 2.58 folds

SMILES: Cc1cc([N+](=O)[O-])ccc1NC(=O)Cn1cc(CSc2nc3ccccc3cc2/C=N/NC(N)=S)nn1 [Compound 10l, (E)-2-(4-(((3-((2-Carbamothioylhydrazineylidene)methyl)quinolin-2-yl)thio)methyl)-1H-1,2,3-triazol-1-yl)-N-(2-methyl-4-nitrophenyl)acetamide]
- Fold increase of inhibitory activity relative to compound 10m (yeast α-glucosidase): 1.82 folds

SMILES: NC(=S)N/N=C/c1cc2ccccc2nc1SCc1cn(CC(=O)NCCc2ccccc2)nn1 [Compound 10n, (E)-2-(4-(((3-((2-Carbamothioylhydrazineylidene)methyl)quinolin-2-yl)thio)methyl)-1H-1,2,3-triazol-1-yl)-N-phenethylacetamide]
- Improving the inhibitory effect (times more potent than acarbose) (yeast α-glucosidase): 15.5
- Ki (α-glucosidase): 48.1 µM
- Mode of α-glucosidase inhibition (α-glucosidase; Lineweaver–Burk plot, inhibitor 0, 12.1, 24.2, 48.4 µM): competitive α-glucosidase inhibitor
